Results: patent US8882853B2, “Environmentally-friendly solvent for washing and dry-cleaning, and laundry composition including the same” (LG Household & Health Care Ltd., priority 2011, dated 2014)
Read-outs that look alike come from different tables or passages of the source.

Assays:
[1] = Drying rate of solvent impregnated in standard cotton samples at room temperature; type: physicochemical; settings: dried for 8 hours, room temperature (25° C.), relative humidity of 30%
Procedure: Each solvent used in Comparative Examples 1 to 7 and Examples 1 to 4 was evaluated for its drying rate at room temperature which is considered an important factor in dry-cleaning. The initial weight (A) of standard cotton samples was each measured. After impregnating each solvent or composition in a certain amount into the cotton samples, the weight (B) of the cotton samples was measured. A difference between weight (B) and weight (A) was calculated to determine the weight of each of the impregnated solvents. Then, the cotton samples in which each solvent was impregnated were dried for 8 hours under conditions of room temperature (25° C.) and a relative humidity of 30%. After drying, the weight of each cotton sample was measured and converted into a percentage relative to the initial impregnation weight to obtain a drying rate for each solvent.

Solubility in water = type: physicochemical
Excerpt: There has been a limitation in the effectiveness of conventional solvents for dry-cleaning in removing water-based contaminants due to the hydrophobic property thereof. Accordingly, in order to relatively evaluate a cleaning effect on the removal of water-based contaminants, the water-containing capacity of solvents according to the present invention was compared with that of the conventional dry-cleaning solvents.

SMILES | Drying rate (%) [1] [%] | Solubility (20° C.) (Solubility in water) [g/ g/100 mL] | Solubility (20° C.) (Solubility in water; result in words)
O [Com. Ex. 1, Water] | 100 | – | –
ClC(Cl)=C(Cl)Cl [Com. Ex. 2, Perchloroethylene] | 100 | 0.015 | –
C[Si]1(C)O[Si](C)(C)O[Si](C)(C)O[Si](C)(C)O[Si](C)(C)O1 [Com. Ex. 4, Decamethyl-cyclopentasiloxane] | 100 | – | Insol-
COCC(O)CO (centres unmarked) [Com. Ex. 5, 3-Methoxy 1,2-propanol] | 10.53 | – | –
COCC(CO)OC (centres unmarked) [Com. Ex. 6, 2,3-Dimethoxy-1-propanol] | 95.29 | – | –
CC1(C)OCC(CO)O1 (centres unmarked) [Example 1, Acetone Glycerol] | 100 | – | soluble

More lines, main results first:

Drying rate (%) [1] [%] | SMILES | Solubility (20° C.) (Solubility in water) [g/ g/100 mL] | Solubility (20° C.) (Solubility in water; result in words)
100 | CCC1(C)OCC(CO)O1 (centres unmarked) [Example 2, Glycerol-Methyl Ethyl Ketone Ketal] | – | soluble
85.25 | CC(C)CC1(C)OCC(CO)O1 (centres unmarked) [Example 3, Glycerol-Methyl Isobuthyl Ketone Ketal] | – | –
90.3 | CCCC1OCC(CO)O1 (centres unmarked) [Example 4, Glycerol-Butylaldehyde Acetal] | – | soluble
